Assay results reported in article PMC8288134, “Synthesis, potential antitumor activity, cell cycle analysis, and multitarget mechanisms of novel hydrazones incorporating a 4-methylsulfonylbenzene scaffold: a molecular docking study” (Journal of Enzyme Inhibition and Medicinal Chemistry, 2021).
Read-outs that look alike come from different tables or passages of the source.

Key:
NCI-H460 = assay: NCI antitumor screen (SRB); assay type: cell-based; settings: Homo sapiens, one dose 10 µM, read-out: Growth inhibition percentage (GI%)
NCI-H522 = assay: NCI antitumor screen (SRB); assay type: cell-based; settings: Homo sapiens
HT29 = assay: NCI antitumor screen (SRB); assay type: cell-based; settings: Homo sapiens, HT-29, one dose 10 µM, read-out: Growth inhibition percentage (GI%)
KM12 = assay: NCI antitumor screen (SRB); assay type: cell-based; settings: Homo sapiens, one dose 10 µM, read-out: Growth inhibition percentage (GI%)
SF-268 = assay: NCI antitumor screen (SRB); assay type: cell-based; settings: Homo sapiens, one dose 10 µM, read-out: Growth inhibition percentage (GI%)
SF-295 = assay: NCI antitumor screen (SRB); assay type: cell-based; settings: Homo sapiens, one dose 10 µM, read-out: Growth inhibition percentage (GI%)
SNB-19 = assay: NCI antitumor screen (SRB); assay type: cell-based; settings: Homo sapiens, one dose 10 µM, read-out: Growth inhibition percentage (GI%)
MALME-3M = assay: NCI antitumor screen (SRB); assay type: cell-based; settings: Homo sapiens, one dose 10 µM, read-out: Growth inhibition percentage (GI%)
UACC-257 = assay: NCI antitumor screen (SRB); assay type: cell-based, human; settings: Homo sapiens; UACC-257; one dose 10 µM; read-out: Growth inhibition percentage (GI%)
IGROV1 = assay: NCI antitumor screen (SRB); assay type: cell-based; settings: Homo sapiens, IGROV-1, one dose 10 µM, read-out: Growth inhibition percentage (GI%)
OVCAR-4 = assay: NCI antitumor screen (SRB); assay type: cell-based; settings: Homo sapiens, one dose 10 µM, read-out: Growth inhibition percentage (GI%)
786-0 = assay: NCI antitumor screen (SRB); assay type: cell-based; settings: Homo sapiens, one dose 10 µM, read-out: Growth inhibition percentage (GI%)
UO-31 = assay: NCI antitumor screen (SRB); assay type: cell-based, human; settings: Homo sapiens; UO-31; one dose 10 µM; read-out: Growth inhibition percentage (GI%)
PC-3 = assay: NCI antitumor screen (SRB); assay type: cell-based; settings: Homo sapiens, one dose 10 µM, read-out: Growth inhibition percentage (GI%)
[1] = system: colon cancer tumour cell lines; settings: cited from earlier work
[2] = system: melanoma tumour cell lines; settings: cited from earlier work
OVCAR-8 = assay: NCI antitumor screen (SRB); assay type: cell-based; settings: Homo sapiens, one dose 10 µM, read-out: Growth inhibition percentage (GI%)
[3] = system: full panel of 59 cancer cell lines; assay: NCI antitumor screen, full panel; settings: one dose 10 µM
[4] = read-out: GI50 (subpanel average), reference drugs, ref https://dtp.cancer.gov/dtpstandard/dwindex/index.jsp
[5] = read-out: LC50 (subpanel average), reference drugs, ref https://dtp.cancer.gov/dtpstandard/dwindex/index.jsp
[6] = reference drugs, ref https://dtp.cancer.gov/dtpstandard/dwindex/index.jsp
[7] = NCI-H522, read-out: Growth inhibition percentage (GI%)

Compound | inhibition at 10 µM (NCI-H460) [%] | inhibition at 10 µM (HT29) [%] | inhibition at 10 µM (KM12) [%] | inhibition at 10 µM (SF-268) [%] | inhibition at 10 µM (SF-295) [%] | inhibition at 10 µM (SNB-19) [%] | inhibition at 10 µM (MALME-3M) [%] | inhibition at 10 µM (UACC-257) [%] | inhibition at 10 µM (IGROV1) [%] | inhibition at 10 µM (OVCAR-4) [%] | inhibition at 10 µM (786-0) [%] | inhibition at 10 µM (UO-31) [%] | inhibition at 10 µM (PC-3) [%] | inhibition at 10 µM (NCI-H522; [7]) [%] | inhibition at 10 µM (OVCAR-8) [%] | PCE: positive cytotoxic effect (number of cell lines with GI 10 to 100% / total number of cell lines) [3] | also measured
O=c1[nH]cc(F)c(=O)[nH]1 [Compound 5-Fu, 5-fluorouracil, reference compound] | 87 | 72.9 | 59.3 | 41 | 30.9 | 34.1 | 41.8 | 80.5 | 48.8 | 40.6 | 51.3 | 58.7 | 41.8 |  |  |  | inhibition at 10 µM (NCI-H522; NCI-H522, one dose 10 µM, read-out: Growth inhibition percentage (GI%)): 42%; GI50 [1, 4]: 0.27 µM; CC50 [1, 5]: 89.3 µM; TGI (subpanel average) [1, 6]: 51.41 µM; GI50 [2, 4]: 7.83 µM; CC50 [2, 5]: 95.4 µM; TGI (subpanel average) [2, 6]: 61.57 µM
CS(=O)(=O)c1ccc(C(=O)NN=Cc2cccc3ccccc23)cc1 [Compound 6, 4-(Methylsulfonyl)-N'-(naphthalen-1-ylmethylene)benzohydrazide] | 33.2 | 50.5 | 49.2 | 14.3 | 24 | 20.2 | 30.3 | 58.9 | 36.8 | < 10 | < 10 | 21.5 | 21.2 | 95.5 | 16.2 | 52/59 | 
Cc1ccc(C=NNC(=O)c2ccc(S(C)(=O)=O)cc2)cc1 [Compound 9, N'-(4-Methylbenzylidene)-4-(methylsulfonyl)benzohydrazide] | < 10 | 17.7 | 25.1 | < 10 | < 10 | < 10 | 15.2 | 28.4 | 12.3 | < 10 | < 10 | 12.3 | 26.9 | 53.9 | < 10 | 27/59 | 
